Test results reported in patent US20240383869A1, “ARYLACETYL INHIBITORS OF TG2 AND USES THEREOF” (UNIVERSITY OF OTTAWA, priority 2021, published 2024).
Like-named read-outs stand apart in the source and are kept apart here.

What was measured:
hTG2 = biological target: T1, hTG2 (Homo sapiens, UniProt P21980); experiment: biochemical
T1 sequence (P21980 1-687): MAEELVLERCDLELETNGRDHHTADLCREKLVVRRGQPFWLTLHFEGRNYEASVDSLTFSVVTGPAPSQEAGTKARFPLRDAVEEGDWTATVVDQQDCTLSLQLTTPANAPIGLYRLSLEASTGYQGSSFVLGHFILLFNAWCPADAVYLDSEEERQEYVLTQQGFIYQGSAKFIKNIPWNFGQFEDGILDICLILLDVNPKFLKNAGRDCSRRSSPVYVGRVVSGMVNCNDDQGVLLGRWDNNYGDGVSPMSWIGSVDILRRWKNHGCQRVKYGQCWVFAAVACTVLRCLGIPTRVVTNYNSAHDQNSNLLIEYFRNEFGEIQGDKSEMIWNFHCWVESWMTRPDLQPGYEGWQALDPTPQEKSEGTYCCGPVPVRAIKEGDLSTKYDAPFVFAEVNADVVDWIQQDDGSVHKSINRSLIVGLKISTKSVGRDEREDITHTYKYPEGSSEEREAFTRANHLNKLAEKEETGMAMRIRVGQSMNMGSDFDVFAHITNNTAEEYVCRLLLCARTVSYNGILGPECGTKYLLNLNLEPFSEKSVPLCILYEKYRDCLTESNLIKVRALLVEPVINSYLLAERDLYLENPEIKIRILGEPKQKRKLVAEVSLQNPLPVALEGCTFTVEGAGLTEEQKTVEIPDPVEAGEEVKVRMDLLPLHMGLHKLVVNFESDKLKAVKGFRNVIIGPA
Description: The ability of the compounds to inhibit TG2 transamidase activity and the kinetics of TG2 inhibition were investigated using a colorimetric activity assay, as follows:
Colorimetric transamidase activity assay. The activities of hTG1, hTG2 and hTG6 were measured via a colorimetric assay using the chromogenic substrate Cbz-Glu(γ-p-nitrophenyl ester)Gly (AL5), as described (Leblanc, A. et al., “Kinetic studies of guinea pig liver transglutaminase reveal a general-base-catalyzed deacylation mechanism.” Biochemistry 2001, 40 (28), 8335-8342). Assays were conducted at 25° C. in 50 mM MOPS buffer (pH 6.95) containing 7.5 mM CaCl2. […] The substrate AL5 was prepared in as a stock solution in DMSO such that the final concentration of this co-solvent was constant at 2.5% v/v. Stock solutions of the inhibitors were made in water ranging in concentration from 100-500 μM. The reaction was initiated with the addition of enzyme, 0.10 μM hTG1, 0.25 μM hTG2 (4.6 mU/mL) or 0.32 μM hTG6. Formation of hydrolysis product, p-nitrophenolate (pNP), was monitored at 405 nm in a polystyrene 96-well microplate using a BioTek Synergy 4 plate reader. The observed first-order rate constants of inactivation (kobs) were determined via non-linear regression fit to a mono-exponential model (Eqn 1) of absorbance versus time curves. These rate constants (kobs) were in turn fit to a saturation kinetics model (Eqn 2), by non-linear regression, providing the kinetic parameters kinact and KI, as previously described by Stone and Hofsteenge (Stone, S. R. and Hofsteenge, J., “Specificity of activated human protein C.” Biochem. J. 1985, 230 (2), 497-502). […] Experiments were completed in triplicate at minimum.
Fitting of this time-dependent inactivation to a monoexponential equation gave first-order rate constants, kobs. […] In some cases, the kinetic data were fitted to a linear double reciprocal equation.

SCC-13 cells = experiment: ECS cell invasion through Matrigel (Transwell); type: cell-based; settings: 0-100 μM inhibitor, 18 h, read-out: EC50 for inhibition of ECS invasion
Description: One well-known property of tumour-initiating cells associated with cancer metastasis is the enhanced ability to invade Matrigel (collagen). For example, it has been shown that epidermal cancer stem (ECS) cells invade Matrigel more efficiently than non-stem cancer cells, and that these properties are associated with enhanced tumour formation (Adhikary, G. et al., PLoS ONE 2013, 8, e84324. https://doi.org/10.1371/journal.pone.0084324). We have shown previously that ˜20 μM of NC9 and 3.9 μM of VA4 can reduce ECS cell invasion through Matrigel by ˜50% relative to vehicle-treated cells (Akbar, A. et al., J. Med. Chem. 2017, 60, 7910-7927. https://doi.org/10.1021/acs.jmedchem.7b01070; Fisher, M. L. et al., Oncotarget 2015, 6, 20525-20539. https://doi.org/10.18632/oncotarget.3890).
Materials and Methods for cell invasion data. To measure cell invasion, Matrigel (Corning, catalogue no. 354234) was diluted to 250 μg/mL and 120 μL was added to the upper chambers of a Transwell plate (Corning, no. 353097, 1-cm diameter, 8-μm pore size) and allowed to solidify. SCC-13 cells were suspended in spheroid medium (Fisher, M. L. et al., Cancer Res. 2016, 76, 7265-7275. https://doi.org/10.1158/0008-5472.can-16-2032; Adhikary, G. et al., Carcinogenesis 2015, 36, 800-810. https://doi.org/10.1093/carcin/bgv064) containing 1% foetal calf serum (FCS), and 20,000 cells were plated into each upper chamber atop the Matrigel. The bottom chamber contained spheroid medium supplemented with 10% FCS and 0-100 μM of inhibitor. After incubation for 18 h in a 37° C. incubator, cells in the top chamber were removed with a swab and cells on the lower surface of the membrane were fixed with 4% paraformaldehyde and the nuclei were stained with 4′,6-diamidino-2-phenylindole. Cell number was counted in multiple fields (n=4) using a fluorescence microscope, normalized with respect to the number counted in the presence of vehicle only, and expressed as mean±standard deviation.

[1] = fit to saturation kinetics model, 25° C., pH 6.95, 100 μM AL5, read-out: KI (converted)
[2] = fit to saturation kinetics model, 25° C., pH 6.95, 100 μM AL5, read-out: kinact (converted)
[3] = fit to saturation kinetics model, 25° C., pH 6.95, 100 μM AL5, read-out: kinact/KI (converted)
[4] = values determined using a double-reciprocal analysis, read-out: KI (converted)

| SMILES | Ki (hTG2; [1]) | kinact (hTG2; [2]) | kinact/KI (hTG2; [3]) | other results |
| --- | --- | --- | --- | --- |
| C=CC(=O)NCCCC[C@H](NC(=O)Cc1ccccc1Cl)C(=O)N1CCN(C(=O)c2cccc3ccccc23)CC1 [Inhibitor 76, (S)-N-(6-(4-(1-naphthoyl)piperazin-1-yl)-5-(2-(2-chlorophenyl)acetamido)-6-oxohexyl)acrylamide] | 18 ± 6.9 µM | 0.0883 s⁻¹ | 4920 M⁻¹ s⁻¹ | EC50 (SCC-13 cells): 92 ± 2 µM |
| C=CC(=O)NCCCC[C@H](NC(=O)C1C2CC3CC(C2)CC1C3)C(=O)N1CCN(C(=O)c2cccc3ccccc23)CC1 (stereo partly drawn) [Inhibitor 33, (1S,3S,5S,7S)-N-((S)-1-(4-(1-naphthoyl)piperazin-1-yl)-6-acrylamido-1-oxohexan-2-yl)adamantane-2-carboxamide] | 15.3 ± 0.3 µM | 0.00383 s⁻¹ | 248 M⁻¹ s⁻¹ |  |
| C=CC(=O)NCCCC[C@H](NC(=O)Cc1cccc(F)c1)C(=O)N1CCN(C(=O)c2cccc3ccccc23)CC1 [Inhibitor 71, (S)-N-(6-(4-(1-naphthoyl)piperazin-1-yl)-5-(2-(3-fluorophenyl)acetamido)-6-oxohexyl)acrylamide] | 4.9 ± 0.5 µM | 0.0125 s⁻¹ | 2580 M⁻¹ s⁻¹ |  |
| C=CC(=O)NCCCC[C@H](NC(=O)c1ccccc1)C(=O)N1CCN(C(=O)c2cccc3ccccc23)CC1 [Inhibitor 61, (S)-N-(1-(4-(1-naphthoyl)piperazin-1-yl)-6-acrylamido-1-oxohexan-2-yl)benzamide] | 27.6 ± 8.1 µM |  |  | kinact (hTG2): 0.0118 s⁻¹; kinact/KI (hTG2): 983 M⁻¹ s⁻¹; kinact/KI (hTG2; pH 6.95): 807 M⁻¹ s⁻¹; Ki (hTG2; [4]): 12 µM |
| C=CC(=O)NCCCC[C@H](NC(=O)Cc1ccc(F)cc1F)C(=O)N1CCN(C(=O)c2cccc3ccccc23)CC1 [Inhibitor 80, (S)-N-(6-(4-(1-naphthoyl)piperazin-1-yl)-5-(2-(2,4-difluorophenyl)acetamido)-6-oxohexyl)acrylamide] | 2.8 ± 0.9 µM | 0.0103 s⁻¹ | 3730 M⁻¹ s⁻¹ |  |
| C=CC(=O)NCCCC[C@H](NC(=O)Cc1ccccc1Br)C(=O)N1CCN(C(=O)c2cccc3ccccc23)CC1 [Inhibitor 77, (S)-N-(6-(4-(1-naphthoyl)piperazin-1-yl)-5-(2-(2-bromophenyl)acetamido)-6-oxohexyl)acrylamide] | 9.8 ± 1.5 µM | 0.0517 s⁻¹ | 5170 M⁻¹ s⁻¹ | EC50 (SCC-13 cells): 94 ± 2 µM |
| C=CC(=O)NCCCC[C@H](NS(=O)(=O)CC)C(=O)N1CCN(C(=O)c2cccc3ccccc23)CC1 [Inhibitor 90, (S)-N-(6-(4-(1-naphthoyl)piperazin-1-yl)-5-(ethylsulfonamido)-6-oxohexyl)acrylamide] | 26.6 ± 1.1 µM | 0.0138 s⁻¹ | 518 M⁻¹ s⁻¹ |  |
| C=CC(=O)NCCCC[C@H](NC(=O)C(C)(C)C)C(=O)N1CCN(C(=O)c2cccc3ccccc23)CC1 [Inhibitor 37, (S)-N-(6-(4-(1-naphthoyl)piperazin-1-yl)-6-oxo-5-pivalamidohexyl)acrylamide] | 8.8 ± 3.6 µM | 0.00817 s⁻¹ | 937 M⁻¹ s⁻¹ |  |
| C=CC(=O)NCCCC[C@H](NC(=O)C1CCCCC1)C(=O)N1CCN(C(=O)c2cccc3ccccc23)CC1 [Inhibitor 35, (S)-N-(1-(4-(1-naphthoyl)piperazin-1-yl)-6-acrylamido-1-oxohexan-2-yl)cyclohexanecarboxamide] | 9.9 ± 1.3 µM | 0.0055 s⁻¹ | 560 M⁻¹ s⁻¹ |  |
| C=CC(=O)NCCCC[C@H](NC(=O)Cc1ccccc1OC)C(=O)N1CCN(C(=O)c2cccc3ccccc23)CC1 [Inhibitor 75, (S)-N-(6-(4-(1-naphthoyl)piperazin-1-yl)-5-(2-(2-methoxyphenyl)acetamido)-6-oxohexyl)acrylamide] | 4.6 ± 2.9 µM | 0.0233 s⁻¹ | 4980 M⁻¹ s⁻¹ |  |
| C=CC(=O)NCCCC[C@H](NS(=O)(=O)c1ccccc1)C(=O)N1CCN(C(=O)c2cccc3ccccc23)CC1 [Inhibitor 89, (S)-N-(6-(4-(1-naphthoyl)piperazin-1-yl)-6-oxo-5-(phenylsulfonamido)hexyl)acrylamide] |  |  |  | Ki (hTG2; [4]): 88.8 ± 6.7 µM; kinact (hTG2; values determined using a double-reciprocal analysis, read-out: kinact (converted)): 0.0105 s⁻¹; kinact/KI (hTG2; values determined using a double-reciprocal analysis, read-out: kinact/KI (converted)): 118 M⁻¹ s⁻¹ |
| C=CC(=O)NCCCC[C@H](NC(=O)c1ccccc1F)C(=O)N1CCN(C(=O)c2cccc3ccccc23)CC1 [Inhibitor 62, (S)-N-(1-(4-(1-naphthoyl)piperazin-1-yl)-6-acrylamido-1-oxohexan-2-yl)-2-fluorobenzamide] | 10 ± 2.6 µM | 0.0065 s⁻¹ | 657 M⁻¹ s⁻¹ |  |
| C=CC(=O)NCCCC[C@H](NC(=O)c1ccc2ccccc2c1)C(=O)N1CCN(C(=O)c2cccc3ccccc23)CC1 [Inhibitor 65, (S)-N-(1-(4-(1-naphthoyl)piperazin-1-yl)-6-acrylamido-1-oxohexan-2-yl)-2-naphthamide] | 8 ± 1.8 µM | 0.00483 s⁻¹ | 608 M⁻¹ s⁻¹ |  |
| C=CC(=O)NCCCC[C@H](NC(=O)c1cccc2ccccc12)C(=O)N1CCN(C(=O)c2cccc3ccccc23)CC1 [Inhibitor 66, (S)-N-(1-(4-(1-naphthoyl)piperazin-1-yl)-6-acrylamido-1-oxohexan-2-yl)-1-naphthamide] | 20.3 ± 5.1 µM |  |  | Ki (hTG2): 9.3 µM; kinact (hTG2): 0.00433 s⁻¹; kinact/KI (hTG2): 458 M⁻¹ s⁻¹; kinact/KI (hTG2; pH 6.95): 335 M⁻¹ s⁻¹ |
